Measurements from patent US20030118577A1, “Use of analogues of superoxide dismutase for treating hepatocellular insufficiencies” (priority 2000, published 2003).

System: acute hepatic insufficiency induced by acetaminophen
Test: Survival of mice after intraperitoneal acetaminophen (acute hepatic insufficiency)
Method: The intraperitoneal injection of acetaminophen into mice induces a severe hepatotoxicity, the degree of which may be evaluated by the survival of the animals, measuring transaminase activities, and macroscopic and microscopic examination of the livers.
The acetaminophen in solution at 100 mg/ml in PBS at pH 7.4 is administered by the intraperitoneal route.
In a first series of experiments, a group of mice received a dose of 1000 mg/kg of acetaminophen; a second group received a dose of 1000 mg/kg of acetaminophen and a dose of 10 mg/kg of MnTBAP administered either 2 h before the acetaminophen or 6 h after; a control group received either MnTBAP alone (10 mg/kg), or PBS alone.
The survival of the animals is monitored for 24 hours after the administration of acetaminophen.
The effect of N-acetyl-L-cysteine (NAC), of CuDIPS, and of MnTBAP on the survival of mice after intraperitoneal injection of 1000 mg/kg of acetaminophen (APAP) was compared.
MnTBAP, NAC, or CuDIPS are administered in the form of a bolus, preventively, 2 hours before (P) or, curatively, 6 hours after (C) the acetaminophen.
The survival of the animals is monitored for 24 hours after administration of acetaminophen.

CC(=O)N[C@@H](CS)C(=O)O [NAC, N-acetyl-L-cysteine]
activity on survival, curative versus preventive administration (APAP 1000 mg/kg, 6 hours after (C) or 2 hours before (P)): only active preventively
percentage of surviving animals (Group X: APAP 1000 mg/kg, NAC 100 mg/kg (P), time 0 h): 100%
percentage of surviving animals (Group X: APAP 1000 mg/kg, NAC 100 mg/kg (P), time 6 h): 100%
percentage of surviving animals (Group X: APAP 1000 mg/kg, NAC 100 mg/kg (P), time 8 h): 100%
percentage of surviving animals (Group X: APAP 1000 mg/kg, NAC 100 mg/kg (P), time 9 h): 100%
percentage of surviving animals (Group X: APAP 1000 mg/kg, NAC 100 mg/kg (P), time 10 h): 100%
percentage of surviving animals (Group X: APAP 1000 mg/kg, NAC 100 mg/kg (P), time 11 h): 100%
percentage of surviving animals (Group X: APAP 1000 mg/kg, NAC 100 mg/kg (P), time 12 h): 100%
percentage of surviving animals (Group X: APAP 1000 mg/kg, NAC 100 mg/kg (P), time 13 h): 100%
percentage of surviving animals (Group X: APAP 1000 mg/kg, NAC 100 mg/kg (P), time 14 h): 90%
percentage of surviving animals (Group X: APAP 1000 mg/kg, NAC 100 mg/kg (P), time 15 h): 80%
percentage of surviving animals (Group X: APAP 1000 mg/kg, NAC 100 mg/kg (P), time 16 h): 60%
percentage of surviving animals (Group X: APAP 1000 mg/kg, NAC 100 mg/kg (P), time 17 h): 60%
percentage of surviving animals (Group X: APAP 1000 mg/kg, NAC 100 mg/kg (P), time 18 h): 50%
percentage of surviving animals (Group X: APAP 1000 mg/kg, NAC 100 mg/kg (P), time 20 h): 40%
percentage of surviving animals (Group X: APAP 1000 mg/kg, NAC 100 mg/kg (P), time 22 h): 40%
percentage of surviving animals (Group X: APAP 1000 mg/kg, NAC 100 mg/kg (P), time 24 h): 40%
percentage of surviving animals (Group XI: APAP 1000 mg/kg, NAC 200 mg/kg (P), time 0 h): 100%
percentage of surviving animals (Group XI: APAP 1000 mg/kg, NAC 200 mg/kg (P), time 6 h): 100%
percentage of surviving animals (Group XI: APAP 1000 mg/kg, NAC 200 mg/kg (P), time 8 h): 100%
percentage of surviving animals (Group XI: APAP 1000 mg/kg, NAC 200 mg/kg (P), time 9 h): 100%
percentage of surviving animals (Group XI: APAP 1000 mg/kg, NAC 200 mg/kg (P), time 10 h): 100%
percentage of surviving animals (Group XI: APAP 1000 mg/kg, NAC 200 mg/kg (P), time 11 h): 90%
percentage of surviving animals (Group XI: APAP 1000 mg/kg, NAC 200 mg/kg (P), time 12 h): 90%
percentage of surviving animals (Group XI: APAP 1000 mg/kg, NAC 200 mg/kg (P), time 13 h): 90%
percentage of surviving animals (Group XI: APAP 1000 mg/kg, NAC 200 mg/kg (P), time 14 h): 90%
percentage of surviving animals (Group XI: APAP 1000 mg/kg, NAC 200 mg/kg (P), time 15 h): 90%
percentage of surviving animals (Group XI: APAP 1000 mg/kg, NAC 200 mg/kg (P), time 16 h): 80%
percentage of surviving animals (Group XI: APAP 1000 mg/kg, NAC 200 mg/kg (P), time 17 h): 80%
percentage of surviving animals (Group XI: APAP 1000 mg/kg, NAC 200 mg/kg (P), time 18 h): 60%
percentage of surviving animals (Group XI: APAP 1000 mg/kg, NAC 200 mg/kg (P), time 20 h): 60%
percentage of surviving animals (Group XI: APAP 1000 mg/kg, NAC 200 mg/kg (P), time 22 h): 60%
percentage of surviving animals (Group XI: APAP 1000 mg/kg, NAC 200 mg/kg (P), time 24 h): 60%
percentage of surviving animals (Group XII: APAP 1000 mg/kg, NAC 300 mg/kg (P), time 0 h): 100%
percentage of surviving animals (Group XII: APAP 1000 mg/kg, NAC 300 mg/kg (P), time 6 h): 100%
percentage of surviving animals (Group XII: APAP 1000 mg/kg, NAC 300 mg/kg (P), time 8 h): 100%
percentage of surviving animals (Group XII: APAP 1000 mg/kg, NAC 300 mg/kg (P), time 9 h): 90%
percentage of surviving animals (Group XII: APAP 1000 mg/kg, NAC 300 mg/kg (P), time 10 h): 90%
percentage of surviving animals (Group XII: APAP 1000 mg/kg, NAC 300 mg/kg (P), time 11 h): 90%
percentage of surviving animals (Group XII: APAP 1000 mg/kg, NAC 300 mg/kg (P), time 12 h): 90%
percentage of surviving animals (Group XII: APAP 1000 mg/kg, NAC 300 mg/kg (P), time 13 h): 90%
percentage of surviving animals (Group XII: APAP 1000 mg/kg, NAC 300 mg/kg (P), time 14 h): 90%
percentage of surviving animals (Group XII: APAP 1000 mg/kg, NAC 300 mg/kg (P), time 15 h): 90%
percentage of surviving animals (Group XII: APAP 1000 mg/kg, NAC 300 mg/kg (P), time 16 h): 90%
percentage of surviving animals (Group XII: APAP 1000 mg/kg, NAC 300 mg/kg (P), time 17 h): 90%
percentage of surviving animals (Group XII: APAP 1000 mg/kg, NAC 300 mg/kg (P), time 18 h): 80%
percentage of surviving animals (Group XII: APAP 1000 mg/kg, NAC 300 mg/kg (P), time 20 h): 80%
percentage of surviving animals (Group XII: APAP 1000 mg/kg, NAC 300 mg/kg (P), time 22 h): 80%
percentage of surviving animals (Group XII: APAP 1000 mg/kg, NAC 300 mg/kg (P), time 24 h): 80%
percentage of surviving animals (Group XIII: APAP 1000 mg/kg, NAC 100 mg/kg (C), time 0 h): 100%
percentage of surviving animals (Group XIII: APAP 1000 mg/kg, NAC 100 mg/kg (C), time 6 h): 100%
percentage of surviving animals (Group XIII: APAP 1000 mg/kg, NAC 100 mg/kg (C), time 8 h): 90%
percentage of surviving animals (Group XIII: APAP 1000 mg/kg, NAC 100 mg/kg (C), time 9 h): 80%
percentage of surviving animals (Group XIII: APAP 1000 mg/kg, NAC 100 mg/kg (C), time 10 h): 60%
percentage of surviving animals (Group XIII: APAP 1000 mg/kg, NAC 100 mg/kg (C), time 11 h): 50%
percentage of surviving animals (Group XIII: APAP 1000 mg/kg, NAC 100 mg/kg (C), time 12 h): 50%
percentage of surviving animals (Group XIII: APAP 1000 mg/kg, NAC 100 mg/kg (C), time 13 h): 40%
percentage of surviving animals (Group XIII: APAP 1000 mg/kg, NAC 100 mg/kg (C), time 14 h): 30%
percentage of surviving animals (Group XIII: APAP 1000 mg/kg, NAC 100 mg/kg (C), time 15 h): 20%
percentage of surviving animals (Group XIII: APAP 1000 mg/kg, NAC 100 mg/kg (C), time 16 h): 20%
percentage of surviving animals (Group XIII: APAP 1000 mg/kg, NAC 100 mg/kg (C), time 17 h): 20%
percentage of surviving animals (Group XIII: APAP 1000 mg/kg, NAC 100 mg/kg (C), time 18 h): 10%
percentage of surviving animals (Group XIII: APAP 1000 mg/kg, NAC 100 mg/kg (C), time 20 h): 10%
percentage of surviving animals (Group XIII: APAP 1000 mg/kg, NAC 100 mg/kg (C), time 22 h): 10%
percentage of surviving animals (Group XIII: APAP 1000 mg/kg, NAC 100 mg/kg (C), time 24 h): 10%
percentage of surviving animals (Group XIV: APAP 1000 mg/kg, NAC 300 mg/kg (C), time 0 h): 100%
percentage of surviving animals (Group XIV: APAP 1000 mg/kg, NAC 300 mg/kg (C), time 6 h): 100%
percentage of surviving animals (Group XIV: APAP 1000 mg/kg, NAC 300 mg/kg (C), time 8 h): 100%
percentage of surviving animals (Group XIV: APAP 1000 mg/kg, NAC 300 mg/kg (C), time 9 h): 90%
percentage of surviving animals (Group XIV: APAP 1000 mg/kg, NAC 300 mg/kg (C), time 10 h): 80%
percentage of surviving animals (Group XIV: APAP 1000 mg/kg, NAC 300 mg/kg (C), time 11 h): 80%
percentage of surviving animals (Group XIV: APAP 1000 mg/kg, NAC 300 mg/kg (C), time 12 h): 60%
percentage of surviving animals (Group XIV: APAP 1000 mg/kg, NAC 300 mg/kg (C), time 13 h): 40%
percentage of surviving animals (Group XIV: APAP 1000 mg/kg, NAC 300 mg/kg (C), time 14 h): 40%
percentage of surviving animals (Group XIV: APAP 1000 mg/kg, NAC 300 mg/kg (C), time 15 h): 40%
percentage of surviving animals (Group XIV: APAP 1000 mg/kg, NAC 300 mg/kg (C), time 16 h): 30%
percentage of surviving animals (Group XIV: APAP 1000 mg/kg, NAC 300 mg/kg (C), time 17 h): 30%
percentage of surviving animals (Group XIV: APAP 1000 mg/kg, NAC 300 mg/kg (C), time 18 h): 30%
percentage of surviving animals (Group XIV: APAP 1000 mg/kg, NAC 300 mg/kg (C), time 20 h): 20%
percentage of surviving animals (Group XIV: APAP 1000 mg/kg, NAC 300 mg/kg (C), time 22 h): 20%
percentage of surviving animals (Group XIV: APAP 1000 mg/kg, NAC 300 mg/kg (C), time 24 h): 20%
